Among the data in patent US20130252930A1 (BIOMARIN PHARMACEUTICAL INC., priority 2010, published 2013) are inhibition, half-life and IC50 values, retold here.

Data set [1] has as its target T1, CYP17 (human testicular microsome) (Homo sapiens, UniProt P05093).
T1 construct: using microsomal fraction from human testis (Celsis Cat #S00110) as the enzyme source; tissue Celsis S00110; host or cells: human testis microsomal fraction
T1 sequence (P05093 1-508): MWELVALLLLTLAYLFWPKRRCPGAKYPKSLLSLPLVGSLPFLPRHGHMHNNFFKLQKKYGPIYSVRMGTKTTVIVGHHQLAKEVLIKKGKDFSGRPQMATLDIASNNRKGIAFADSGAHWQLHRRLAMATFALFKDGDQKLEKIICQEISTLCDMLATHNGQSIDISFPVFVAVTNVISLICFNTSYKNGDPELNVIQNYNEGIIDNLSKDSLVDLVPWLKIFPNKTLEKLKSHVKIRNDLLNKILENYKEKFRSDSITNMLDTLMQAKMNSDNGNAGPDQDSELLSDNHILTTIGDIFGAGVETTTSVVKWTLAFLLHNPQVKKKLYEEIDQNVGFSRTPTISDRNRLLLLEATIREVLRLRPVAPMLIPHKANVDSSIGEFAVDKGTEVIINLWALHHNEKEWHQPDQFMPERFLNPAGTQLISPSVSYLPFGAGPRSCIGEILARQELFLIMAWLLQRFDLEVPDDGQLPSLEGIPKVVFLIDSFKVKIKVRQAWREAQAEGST
Kind of data set: CYP17 enzymatic assay (% inhibition at 10 nM), version 1 (Biological Example 5). The format is biochemical. To be noted: 10 nM compound, DHEA by ELISA, read-out: Biological Example No. 5: CYP17 percent inhibition at 10 nM (version 1). In general terms: In an ELISA, binding on a coated surface is turned into a signal by an enzyme label.

The nature of data set [2]: Rat liver microsome stability assay (Biological Example 8a). To be noted: liver microsomes, pH 7.4. For orientation: Microsomes from liver hold many membrane-bound enzymes, among them those of drug oxidation.
Description: Each test compound (1.5 μM, 30 μL) was incubated with rat (BD Gentest, Cat No. 452501) or human (BD Gentest, Cat No. 452161) liver microsomes (0.75 mg/mL, 0.1 M potassium phosphate buffer, 1.0 mM EDTA, pH 7.4) in 96 well plates. The reaction was started with addition of excess NADPH (5 mg/mL, 15 μL in 0.1 M potassium phosphate buffer, 1.0 mM EDTA, pH 7.4), the total volume is 45 μL (compound final concentration was 1 μM). The incubations were terminated at time zero and at 5, 15, 30, and 60 minutes by addition of 135 μL/excess ACN containing internal standard (1S). After quenching, the reaction mixtures was centrifuged (Eppendorf Centrifuge 5810R) at 3220×g for 10 min (4° C.). 50 μL of the supernatant was transferred from each well into a 96-well sample plate containing 50 μL of ultra-pure water (Millipore) for LC-MS/MS analysis. The half-life T1/2=0.693/K (K is the rate constant from a plot of log [concentration] vs. incubation time) was calculated.
Data set [3] concerns the target T2, Cyp21 enzyme (Human HEK 293-Cyp21 stable transfected cells) (Homo sapiens, UniProt P08686).
T2 construct: expressed in transfected cells
T2 sequence (P08686 1-495): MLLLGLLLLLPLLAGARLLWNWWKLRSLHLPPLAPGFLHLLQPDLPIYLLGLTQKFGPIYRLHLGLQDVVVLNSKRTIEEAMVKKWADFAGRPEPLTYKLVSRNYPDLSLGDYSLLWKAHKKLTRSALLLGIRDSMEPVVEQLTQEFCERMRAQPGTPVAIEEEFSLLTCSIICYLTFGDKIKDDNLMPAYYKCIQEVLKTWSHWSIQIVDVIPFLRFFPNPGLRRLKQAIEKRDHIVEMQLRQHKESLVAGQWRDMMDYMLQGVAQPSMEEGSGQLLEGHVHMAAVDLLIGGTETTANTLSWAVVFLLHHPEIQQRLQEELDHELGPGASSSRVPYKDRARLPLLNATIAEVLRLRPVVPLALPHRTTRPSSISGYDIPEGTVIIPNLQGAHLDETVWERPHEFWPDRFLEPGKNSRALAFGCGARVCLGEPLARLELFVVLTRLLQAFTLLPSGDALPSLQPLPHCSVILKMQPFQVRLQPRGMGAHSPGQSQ
Kind of data set: CYP21-HEK293 enzymatic assay (% inhibition at 100 nM) (Biological Example 10). The class given is cell-based. To be noted: HEK 293-Cyp21 cells. The method, boiled down:
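Percent inhibition at 100 nM: DOC in conditioned medium was read by ELISA at 450 nm and quantified from a standard curve. Stably transfected human Cyp21 HEK293 cells were pretreated 5 h with compound or 1% methanol mock, then given 10 μM final progesterone for 20 h at 37 °C.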

Data set [4] can be described thus: Human liver microsome stability assay (Biological Example 8b). To be noted: liver microsomes, pH 7.4.
Description: The reaction was started with addition of excess NADPH (5 mg/mL, 15 μL in 0.1 M potassium phosphate buffer, 1.0 mM EDTA, pH 7.4), the total volume is 45 μL (compound final concentration was 1 μM). […] 50 μL of the supernatant was transferred from each well into a 96-well sample plate containing 50 μL of ultra-pure water (Millipore) for LC-MS/MS analysis.
For data set [5], the target named is T1, CYP17 (human testicular microsome). Kind of data set: CYP17 enzymatic assay (IC50) (Biological Example 4). The class given is biochemical. To be noted: human testicular microsome.
The target is the same in data set [6]. Kind of data set: CYP17 enzymatic assay (% inhibition at 1 nM) (Biological Example 12). The format is biochemical. To be noted: compound at 1 nM, read-out: CYP17 enzymatic assay % inhibition at 1 nM (Biological Example No. 12).
Where [7] appears, read: 100 nM compound, read-out: Biological Example No. 10: CYP21-HEK293 percent inhibition at 100 nM.
The mark [8] stands for this setting: DHEA by ELISA, read-out: Biological Example No. 4: CYP17 enzymatic assay IC50.

Molecules are shown by their SMILES. Like-named read-outs stand apart in the source and are kept apart here.

Broadly, the inhibition is the change of the read-out against control, counted positive when it falls. As usually defined, the half-life is the time in which the quantity being followed falls by half. Read a high half-life as slow loss. Usually IC50 stands for the concentration that inhibits the measured activity by half. On to `C[C@]12CC[C@H]3[C@@H](CC=C4C[C@@H](O)CC[C@@]43C)C1=CC=C2c1cccnc1` [Compound 79, (3S,10R,13S)-10,13-dimethyl-17-(pyridin-3-yl)-2,3,4,7,8,9,10,11,12,13-decahydro-1H-cyclopenta[a]phenanthren-3-ol], for which the inhibition at 0.01 µM in data set [1] lay in the range of 50 to 80%. Besides, the half-life at 1 μM lay in the range of 10 to 60 min in data set [2] and 1 to 50 min in data set [4]. For the same molecule, the inhibition at 0.1 µM in data set [3] (setting [7]) is below 30%. The IC50 in data set [5] (setting [8]) is below 11 nM.
As for `C[C@]12CC(O)C[C@@H]1CC[C@@H]1[C@@H]2CC[C@]2(C)C(n3ccnc3)=CC[C@@H]12` (stereo partly drawn) [Compound 109, (3aS,5aS)-6-(1H-imidazol-1-yl)-3a,5a-dimethyl-1,2,3,3a,3b,4,5,5a,8,8a,8b,9,10,10a-tetradecahydrodicyclopenta[a,f]naphthalen-2-ol], in data set [1], the inhibition at 0.01 µM was above 80%. Besides, in data set [2], the half-life at 1 μM lay within 10 to 60 min. The inhibition at 0.1 µM in data set [3] (setting [7]) was at least 30%. Also, the IC50 in data set [5] (setting [8]) was below 11 nM.
Turning to `CC(=O)NC1CC[C@@]2(C)C(=CCC3C2CC[C@]2(C)C(n4ccnc4)=CCC32)C1` (stereo partly drawn) [Compound 237, N-((10R,13S)-17-(1H-imidazol-1-yl)-10,13-dimethyl-2,3,4,7,8,9,10,11,12,13,14,15-dodecahydro-1H-cyclopenta[a]phenanthren-3-yl)acetamide], in data set [3] (compound at 100 nM, read-out: CYP21-HEK293 enzymatic assay % inhibition at 100 nM (Biological Example No. 10)), the inhibition at 0.1 µM is below 30%. The same molecule returned a half-life at 1 μM in data set [4] above 50 min. For the same molecule, the inhibition at 0.001 µM in data set [6] is above 50%. The IC50 in data set [5] (read-out: CYP17 enzymatic assay IC50 (Biological Example No. 4)) was below 11 nM.
